Reference: PubChem BioAssay AID1845219 (Molecular Pharmacology Branch, DTP, NCI, 2023)

Tested on: SYO-1 tumor spheroids, viability % test/control
Experiment: Anticancer human tumor SYO-1 cell line growth inhibition;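 also: spheroids exposed to agents for 7 days before viability read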;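 as to viability, T/C: 100% = DMSO vehicle control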
Conditions: spheroids with HUVEC and MSC; for IC50: curve of first compound; for viability, T/C: stronger effect = lower value
Procedure, shortened: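 Single agents and combinations were tested on spheroids built from tumor cells plus HUVEC and hMSC, at half-log dilutions starting at or near clinical Cmax, else 10 microM; final DMSO 0.25% (v/v).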

[1] = second compound 30 pM, first compound 0.0316 µM
[2] = second compound 30 pM, first compound 0.1 µM
[3] = second compound 30 pM, first compound 0.316 µM
[4] = second compound 30 pM, first compound 1 µM
[5] = second compound 30 pM, first compound 3.16 µM
[6] = second compound 30 pM, first compound 10 µM
[7] = second compound 94.9 pM, first compound 0.0316 µM
[8] = second compound 94.9 pM, first compound 0.1 µM
[9] = second compound 94.9 pM, first compound 0.316 µM
[10] = second compound 94.9 pM, first compound 1 µM
[11] = second compound 94.9 pM, first compound 3.16 µM
[12] = second compound 94.9 pM, first compound 10 µM
[13] = second compound 0.0003 µM, first compound 0.0316 µM
[14] = second compound 0.0003 µM, first compound 0.1 µM
[15] = second compound 0.0003 µM, first compound 0.316 µM
[16] = second compound 0.0003 µM, first compound 1 µM
[17] = second compound 0.0003 µM, first compound 3.16 µM
[18] = second compound 0.0003 µM, first compound 10 µM
[19] = second compound 0.000949 µM, first compound 0.0316 µM
[20] = second compound 0.000949 µM, first compound 0.1 µM
[21] = second compound 0.000949 µM, first compound 0.316 µM
[22] = second compound 0.000949 µM, first compound 1 µM
[23] = second compound 0.000949 µM, first compound 3.16 µM
[24] = second compound 0.000949 µM, first compound 10 µM
[25] = second compound 0.003 µM, first compound 0.0316 µM
[26] = second compound 0.003 µM, first compound 0.1 µM
[27] = second compound 0.003 µM, first compound 0.316 µM
[28] = second compound 0.003 µM, first compound 1 µM
[29] = second compound 0.003 µM, first compound 3.16 µM
[30] = second compound 0.003 µM, first compound 10 µM

Row | SMILES | IC50 (second compound 30 pM) | IC50 (second compound 94.9 pM) | IC50 (second compound 0.0003 µM) | IC50 (second compound 0.000949 µM) | IC50 (second compound 0.003 µM) | viability, T/C [1] | viability, T/C [2] | viability, T/C [3] | viability, T/C [4] | viability, T/C [5] | viability, T/C [6] | viability, T/C [7] | viability, T/C [8] | viability, T/C [9] | viability, T/C [10] | viability, T/C [11] | viability, T/C [12] | viability, T/C [13] | viability, T/C [14] | viability, T/C [15] | other results
1 | CC(C)n1c(=O)n(C)c2cnc3cc(F)c(-c4ccc(OCCCN5CCCCC5)nc4)cc3c21 + COc1cc2c(cc1O)CCNC21CSC2c3c(OC(C)=O)c(C)c4c(c3C(COC1=O)N1C(O)C3Cc5cc(C)c(OC)c(O)c5C(C21)N3C)OCO4 | 7380 nM | < 31.6 nM | < 31.6 nM | < 31.6 nM | < 31.6 nM | 99.7% | 97.7% | 98% | 99.4% | 89.7% | 35.5% | 37.6% | 33.4% | 43.2% | 52.4% | 50% | 21.6% | 2.89% | 2.78% | 3.15% | viability, T/C [16]: 3.23%; viability, T/C [17]: 2.46%; viability, T/C [18]: 0.62%; viability, T/C [19]: 0.98%; viability, T/C [20]: 1.01%; viability, T/C [21]: 0.98%; viability, T/C [22]: 1.04%; viability, T/C [23]: 0.96%; viability, T/C [24]: 0.32%; viability, T/C [25]: 0.12%; viability, T/C [26]: 0.12%; viability, T/C [27]: 0.12%; viability, T/C [28]: 0.13%; viability, T/C [29]: 0.13%; viability, T/C [30]: 0.22%
2 | CC1COCCN1c1cc(-c2ccnn2C)c2ccnc(-c3ccn[nH]3)c2n1 (stereo not given) + COc1cc2c(cc1O)CCNC21CSC2c3c(OC(C)=O)c(C)c4c(c3C(COC1=O)N1C(O)C3Cc5cc(C)c(OC)c(O)c5C(C21)N3C)OCO4 | < 31.6 nM | < 31.6 nM | < 31.6 nM | < 31.6 nM | < 31.6 nM | 3.62% | 1.79% | 1.29% | 0.95% | 0.42% | 0.48% | 1.83% | 1.41% | 1.17% | 0.6% | 0.3% | 0.41% | 1.24% | 1.22% | 0.9% | viability, T/C [16]: 0.63%; viability, T/C [17]: 0.26%; viability, T/C [18]: 0.29%; viability, T/C [19]: 1.03%; viability, T/C [20]: 0.61%; viability, T/C [21]: 0.54%; viability, T/C [22]: 0.31%; viability, T/C [23]: 0.2%; viability, T/C [24]: 0.19%; viability, T/C [25]: 0.11%; viability, T/C [26]: 0.11%; viability, T/C [27]: 0.09%; viability, T/C [28]: 0.09%; viability, T/C [29]: 0.1%; viability, T/C [30]: 0.16%
3 | COc1cc(C)[nH]c(=O)c1CN1CCc2c(Cl)cc(C(OC)C3COC3)c(Cl)c2C1=O (stereo not given) + COc1cc2c(cc1O)CCNC21CSC2c3c(OC(C)=O)c(C)c4c(c3C(COC1=O)N1C(O)C3Cc5cc(C)c(OC)c(O)c5C(C21)N3C)OCO4 | 1490 nM | 198 nM | < 31.6 nM | < 31.6 nM | < 31.6 nM | 104% | 104% | 79.3% | 55.3% | 42.5% | 40.5% | 94% | 65.8% | 39.9% | 20.9% | 16.5% | 11.5% | 6.74% | 4% | 3.76% | viability, T/C [16]: 3.14%; viability, T/C [17]: 2.73%; viability, T/C [18]: 2.74%; viability, T/C [19]: 0.89%; viability, T/C [20]: 0.96%; viability, T/C [21]: 0.72%; viability, T/C [22]: 0.67%; viability, T/C [23]: 0.86%; viability, T/C [24]: 0.76%; viability, T/C [25]: 0.11%; viability, T/C [26]: 0.09%; viability, T/C [27]: 0.1%; viability, T/C [28]: 0.11%; viability, T/C [29]: 0.11%; viability, T/C [30]: 0.17%
4 | COc1ccc([C@@H](O)c2cc(-c3ncnc4cc(N5CCOCC5)ccc34)c(F)cc2Cl)nn1 + COc1cc2c(cc1O)CCNC21CSC2c3c(OC(C)=O)c(C)c4c(c3C(COC1=O)N1C(O)C3Cc5cc(C)c(OC)c(O)c5C(C21)N3C)OCO4 | 3170 nM | 772 nM | < 31.6 nM | < 31.6 nM | < 31.6 nM | 104% | 103% | 105% | 102% | 50.1% | 2.83% | 97.7% | 103% | 94.9% | 37% | 5.43% | 7.51% | 12.2% | 9.57% | 3.06% | viability, T/C [16]: 1.34%; viability, T/C [17]: 0.26%; viability, T/C [18]: 0.17%; viability, T/C [19]: 0.88%; viability, T/C [20]: 0.86%; viability, T/C [21]: 0.54%; viability, T/C [22]: 0.23%; viability, T/C [23]: 0.03%; viability, T/C [24]: 0.15%; viability, T/C [25]: 0.12%; viability, T/C [26]: 0.12%; viability, T/C [27]: 0.1%; viability, T/C [28]: 0.24%; viability, T/C [29]: 0.38%; viability, T/C [30]: 1.5%
5 | Cc1cc(C)c(CNC(=O)c2cc(-c3ccc(CN4CCOCC4)cc3)cc3c2cnn3C2CCCC2)c(=O)[nH]1 + COc1cc2c(cc1O)CCNC21CSC2c3c(OC(C)=O)c(C)c4c(c3C(COC1=O)N1C(O)C3Cc5cc(C)c(OC)c(O)c5C(C21)N3C)OCO4 | > 10000 nM | 7980 nM | < 31.6 nM | < 31.6 nM | < 31.6 nM | 103% | 97.2% | 100% | 103% | 107% | 96.3% | 102% | 96.3% | 99.2% | 99.8% | 84.5% | 41.1% | 18.4% | 14.3% | 13.3% | viability, T/C [16]: 11%; viability, T/C [17]: 12.2%; viability, T/C [18]: 3.97%; viability, T/C [19]: 0.91%; viability, T/C [20]: 0.86%; viability, T/C [21]: 1.11%; viability, T/C [22]: 0.97%; viability, T/C [23]: 0.9%; viability, T/C [24]: 1.08%; viability, T/C [25]: 0.13%; viability, T/C [26]: 0.13%; viability, T/C [27]: 0.13%; viability, T/C [28]: 0.15%; viability, T/C [29]: 0.14%; viability, T/C [30]: 0.2%
6 | [2H]c1nc(C)nc([2H])c1-c1cc(NC[C@@H](C)c2cccc3c(C(=O)NC)ccnc23)ncn1 + COc1cc2c(cc1O)CCNC21CSC2c3c(OC(C)=O)c(C)c4c(c3C(COC1=O)N1C(O)C3Cc5cc(C)c(OC)c(O)c5C(C21)N3C)OCO4 | > 10000 nM | > 10000 nM | < 31.6 nM | < 31.6 nM | < 31.6 nM | 95.9% | 101% | 102% | 102% | 104% | 102% | 97.7% | 97.1% | 99.6% | 98.8% | 100% | 95.7% | 10.9% | 11.6% | 12.2% | viability, T/C [16]: 11.5%; viability, T/C [17]: 13.1%; viability, T/C [18]: 5.66%; viability, T/C [19]: 0.9%; viability, T/C [20]: 0.98%; viability, T/C [21]: 0.92%; viability, T/C [22]: 0.87%; viability, T/C [23]: 0.92%; viability, T/C [24]: 0.94%; viability, T/C [25]: 0.96%; viability, T/C [26]: 1.13%; viability, T/C [27]: 4.62%; viability, T/C [28]: 0.12%; viability, T/C [29]: 0.12%; viability, T/C [30]: 0.2%
